Test results published in publication PMC7736042, “Quinazolinones as Competitive Inhibitors of Carbonic Anhydrase-II (Human and Bovine): Synthesis, in-vitro, in-silico, Selectivity, and Kinetics Studies” (Frontiers in Chemistry, 2020).

Legend:
[1] = target: bovine carbonic anhydrase-II (bCA-II) (Bos taurus, UniProt P00921); assay: In-vitro bCA-II inhibition, spectrophotometric p-nitrophenyl acetate assay; assay type: biochemical; details: for IC50 / IC50 ± SEM: NA = Not active
Experimental: Each inhibitory well-consisted of 140 μL of HEPES-Tris buffer solution, 20 μL of bCA-II enzyme solution (0.1 mg/mL HEPES-Tris buffer), and 20 μL of test compound in HPLC grade DMSO (maintain 10% of the final concentration). […] Substrate p-nitrophenyl acetate (p-NPA) (0.7 mM) was prepared in HPLC grade methanol and the reaction was started by adding 20 μL to a well in a 96-well-plate. The amount of product formed was measured for 30 min continuously at 1 min intervals at 400 nm in a 96-well-plate using xMARK microplate spectrophotometer, Bio-Rad (USA). The activity of the controlled compound was taken as 100%. All experiments were carried out in triplicates of each used concentration, and results are represented as a mean of the triplicate.

[2] = target: human carbonic anhydrase-II (hCA-II) (Homo sapiens, UniProt P00918); assay: In-vitro hCA-II inhibition, spectrophotometric p-nitrophenyl acetate assay; assay type: biochemical; details: for IC50: NA = Not active; for selectivity hCA-II versus bCA-II: from in-vitro results on bCA-II and hCA-II
[3] = target: bCA-II (Bos taurus, UniProt P00921); assay: Kinetics study on bCA-II (Lineweaver-Burk, secondary replot, Dixon plot); assay type: biochemical, bovine
Experimental: (§1) To investigate the mechanism of action of these compounds, kinetics studies were performed. The kinetics studies were used to discover the type of inhibition and dissociation constant (Ki). […] From the kinetics studies, it was deduced that the compound 4d is a competitive inhibitor for both bCA-II and hCA-II. The Lineweaver-Burk plots were used for determination of the type of inhibition, in which the reciprocal of substrate concentrations was plotted against the reciprocal of the rate of the reaction to monitor the effect of the inhibitor on both Km and Vmax. […] In competitive inhibition, the Km of enzyme increased, while Vmax are not affected.
(§2) Figure 2 The mode of inhibition of bCA-II by compound 4d. […] (B) Secondary re-plot of Lineweaver–Burk plot between the slopes of each line on Lineweaver–Burk plot vs. different concentrations of compound 4d. (C) Dixon plot of reciprocal rate of reaction (velocities) vs. different concentrations of compound 4d.
(§3) The Ki values of compounds 4d for both enzymes bCA-II and hCA-II were deduced by secondary replots of Lineweaver-Burk plots by plotting the slope of each line in the Lineweaver-Burk plots against different concentrations of compound 4d (Figures 2B, 3B). The Ki values were confirmed by Dixon plot after plotting the reciprocal of the rate of reaction against different concentrations of compound 4d (Figures 2C, 3C).

[4] = target: hCA-II (Homo sapiens, UniProt P00918); assay: Kinetics study on hCA-II (Lineweaver-Burk, secondary replot, Dixon plot); assay type: biochemical
Experimental: as §1
as §2, with “3” for “2”, “hCA-II” for “bCA-II”
as §3

[5] = substrate p-nitrophenyl acetate

Chain of bovine carbonic anhydrase-II (bCA-II) (P00921 whole entry): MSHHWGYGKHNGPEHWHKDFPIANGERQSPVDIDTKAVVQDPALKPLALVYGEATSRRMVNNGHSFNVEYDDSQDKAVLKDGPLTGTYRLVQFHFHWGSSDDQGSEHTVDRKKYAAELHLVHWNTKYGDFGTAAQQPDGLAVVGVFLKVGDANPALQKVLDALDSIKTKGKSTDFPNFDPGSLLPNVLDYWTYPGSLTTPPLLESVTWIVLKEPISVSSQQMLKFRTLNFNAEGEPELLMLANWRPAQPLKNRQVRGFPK
Chain of bCA-II (P00921 whole entry): as above

Molecule | % Inhibition (0.5 mM) ([1]; 0.5 mM) | IC50 [1] | % Inhibition (0.5 mM) ([2]; hCA-II, 0.5 mM) | melting point | inhibition at 500 µM ([1]; 0.5 mM) | inhibition at 500 µM ([2]; hCA-II, 0.5 mM) | IC50 ([2]; hCA-II) | mode of inhibition ([3]; Lineweaver-Burk plot) | Ki [3, 5] | mode of inhibition ([4]; Lineweaver-Burk plot) | Ki [4, 5] | selectivity hCA-II versus bCA-II [2] | IC50 ± SEM [1]
3-Amino-2-(Napthalen-1-yl) Quinazolin-4(3H)-one [Compound 4b] | 83.6% | 67.3 ± 0.42 µM | 38.1% | – | – | – | – | – | – | – | – | – | –
Nn1c(-c2ccccc2)nc2ccccc2c1=O [Compound 4a, 3-Amino-2-Phenylquinazolin-4(3H)-one] | – | 53.6 ± 0.85 µM | – | 200 to 202 °C | 75.2% | 75.2% | 59.6 ± 1.03 µM | – | – | – | – | – | –
Nn1c(-c2ccc([N+](=O)[O-])cc2)nc2ccccc2c1=O [Compound 4e, 3-Amino-2-(4-nitrophenyl) quinazolin-4(3H)-one] | – | 9.1 ± 0.21 µM | – | 224 to 225 °C | 80.7% | 92.7% | 39.9 ± 2.21 µM | – | – | – | – | – | –
Cc1ccc(-c2nc3ccccc3c(=O)n2N)cc1 [Compound 4h, 3-Amino-2-(4-Methylphenyl) Quinazolin-4(3H)-one] | – | 38 ± 0.62 µM | – | 294 to 296 °C | 92.4% | 92.4% | 53 ± 2.12 µM | – | – | – | – | – | –
Nn1c(-c2ccccc2F)nc2ccccc2c1=O [Compound 4i, 3-Amino-2-(2-Fluorophenyl) Quinazolin-4(3H)-one] | – | – | – | 169 to 170 °C | 17.6% | 27.8% | – | – | – | – | – | – | inactive
Nn1c(-c2cccc(F)c2)nc2ccccc2c1=O [Compound 4j, 3-Amino-2-(3-Fluorophenyl) Quinazolin-4(3H)-one] | – | 46.6 ± 0.39 µM | – | 164 to 165 °C | 78.6% | 28.1% | – | – | – | – | – | – | –
COc1ccc(-c2nc3ccccc3c(=O)n2N)cc1 [Compound 4o, 3-Amino-2-(4-Methoxyphenyl) Quinazolin-4(3H)-one] | – | – | – | – | 19.9% | 89.4% | 22 ± 0.4 µM | – | – | – | – | more selective inhibitors for hCA-II | inactive

The next lines start with the values.

% Inhibition (0.5 mM) ([1]; 0.5 mM) | IC50 [1] | % Inhibition (0.5 mM) ([2]; hCA-II, 0.5 mM) | melting point | inhibition at 500 µM ([1]; 0.5 mM) | inhibition at 500 µM ([2]; hCA-II, 0.5 mM) | IC50 ([2]; hCA-II) | mode of inhibition ([3]; Lineweaver-Burk plot) | Ki [3, 5] | mode of inhibition ([4]; Lineweaver-Burk plot) | Ki [4, 5] | selectivity hCA-II versus bCA-II [2] | IC50 ± SEM [1] | Molecule
– | 11.7 ± 0.36 µM | – | 180 to 182 °C | 80.5% | 88.5% | 21.1 ± 1.36 µM | – | – | – | – | – | – | Nn1c(-c2ccccc2[N+](=O)[O-])nc2ccccc2c1=O [Compound 4c, 3-Amino-2-(2-Nitrophenyl) Quinazolin-4(3H)-one]
– | 19.7 ± 1.02 µM | – | 206 to 208 °C | 92.9% | 94.2% | 21.5 ± 0.52 µM | competitive | 13 ± 0.013 µM | competitive | 14.25 ± 0.017 µM | – | – | Nn1c(-c2cccc([N+](=O)[O-])c2)nc2ccccc2c1=O [Compound 4d, 3-Amino-2-(3-Nitrophenyl) Quinazolin-4(3H)-one]
– | 17.9 ± 0.56 µM | – | 204 to 206 °C | 88.9% | 98.9% | 43.5 ± 1.51 µM | – | – | – | – | – | – | Nn1c(-c2ccccc2Br)nc2ccccc2c1=O [Compound 4f, 3-Amino-2-(2-Bromophenyl) Quinazolin-4(3H)-one]
– | 33.6 ± 0.22 µM | – | 184 to 185 °C | 85.3% | 85.3% | 14 ± 0.6 µM | – | – | – | – | more selective inhibitors for hCA-II | – | Nn1c(-c2ccc(Br)cc2)nc2ccccc2c1=O [Compound 4g, 3-Amino-2-(4-Bromophenyl) Quinazolin-4(3H)-one]
– | 18.3 ± 0.51 µM | – | 176 to 178 °C | 76.3% | 36.2% | – | – | – | – | – | – | – | Nn1c(-c2ccc(F)cc2)nc2ccccc2c1=O [Compound 4k, 3-Amino-2-(4-Fluorophenyl) Quinazolin-4(3H)-one]
– | 10.7 ± 0.82 µM | – | 160 to 162 °C | 78.2% | 28.7% | – | – | – | – | – | – | – | Nn1c(-c2ccccc2Cl)nc2ccccc2c1=O [Compound 4l, 3-Amino-2-(2-Chlorophenyl) Quinazolin-4(3H)-one]
– | 8.9 ± 0.31 µM | – | 144 to 145 °C | 60% | 30.5% | – | – | – | – | – | – | – | Nn1c(-c2cccc(Cl)c2)nc2ccccc2c1=O [Compound 4m, 3-Amino-2-(3-Chlorophenyl) Quinazolin-4(3H)-one]
– | 28.2 ± 0.01 µM | – | 165 to 166 °C | 54.2% | 24.3% | – | – | – | – | – | – | – | Nn1c(-c2ccc(Cl)cc2)nc2ccccc2c1=O [Compound 4n, 3-Amino-2-(4-Chlorophenyl) Quinazolin-4(3H)-one]
– | 26.8 ± 0.23 µM | – | – | 87.3% | 27.4% | – | – | – | – | – | – | – | COc1cc(-c2nc3ccccc3c(=O)n2N)cc(OC)c1OC [Compound 4p, 3-Amino-2-(3,4,5-Trimethoxyphenyl) Quinazolin-4(3H)-one]
